From PubChem BioAssay (NCI)
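Values below derive from 48-hour exposures of cells grown in 96-well plates, with endpoints linearly interpolated between the two concentrations bracketing the appropriate inhibition level. GI50: concentration for 50% inhibition of growth. TGI denotes the concentration required for complete inhibition of growth.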

What was measured:
Assay in all cases: NCI tumour cell line growth inhibition, 48 h
[1] = system: 786-0 renal
[2] = system: A549 NSCLC
[3] = system: ACHN renal
[4] = system: CAKI-1 renal
[5] = system: CCRF-CEM leukemia
[6] = system: DLD-1 colon
[7] = system: DMS 114 small cell lung
[8] = system: DMS 273 small cell lung
[9] = system: EKVX NSCLC
[10] = system: HCC-2998 colon
[11] = system: HCT-116 colon
[12] = system: HCT-15 colon
[13] = system: HOP-18 NSCLC
[14] = system: HOP-62 NSCLC
[15] = system: HOP-92 NSCLC
[16] = system: HT29 colon
[17] = system: IGROV1 ovarian
[18] = system: K-562 leukemia
[19] = system: KM12 colon
[20] = system: KM20L2 colon
[21] = system: LXFL 529 NSCLC
[22] = system: M14 melanoma
[23] = system: M19-MEL melanoma
[24] = system: MALME-3M melanoma
[25] = system: MOLT-4 leukemia
[26] = system: NCI-H226 lung
[27] = system: NCI-H23 lung
[28] = system: NCI-H460 lung
[29] = system: NCI-H522 lung
[30] = system: OVCAR-3 ovarian
[31] = system: OVCAR-4 ovarian
[32] = system: OVCAR-5 ovarian
[33] = system: OVCAR-8 ovarian
[34] = system: RPMI-8226 leukemia
[35] = system: RXF 393 renal
[36] = system: RXF-631 renal
[37] = system: SF-268 CNS
[38] = system: SF-295 CNS
[39] = system: SF-539 CNS
[40] = system: SK-MEL-2 melanoma
[41] = system: SK-MEL-28 melanoma
[42] = system: SK-MEL-5 melanoma
[43] = system: SK-OV-3 ovarian
[44] = system: SN12C renal
[45] = system: SNB-19 CNS
[46] = system: SNB-75 CNS
[47] = system: SNB-78 CNS
[48] = system: SR leukemia
[49] = system: SW-620 colon
[50] = system: TK-10 renal
[51] = system: U251 CNS
[52] = system: UACC-257 melanoma
[53] = system: UACC-62 melanoma
[54] = system: UO-31 renal
[55] = system: XF 498 CNS
[56] = system: A498 renal
[57] = system: COLO 205 colon
[58] = system: HL-60(TB) leukemia
[59] = system: LOX IMVI melanoma
[60] = system: MCF7 breast
[61] = system: NCI/ADR-RES ovarian
[62] = system: P388 leukemia
[63] = system: P388/ADR leukemia
[64] = system: SN12K1 renal

Structure (SMILES): COc1c(NC(=O)CC(C)=O)[c]([Hg][O]C(C)=O)c(OC)c(Cl)[c]1[Hg][O]C(C)=O
- GI50 [1]: 6.47 µM
- TGI [1]: 18.8 µM
- GI50 [2]: 21.9 µM
- TGI [2]: 47 µM
- GI50 [3]: 13 µM
- TGI [3]: 25.6 µM
- GI50 [4]: 13 µM
- TGI [4]: 25.6 µM
- GI50 [5]: 4.8 µM
- TGI [5]: 28.5 µM
- GI50 [6]: 14.2 µM
- TGI [6]: 32.6 µM
- GI50 [7]: 1.61 µM
- TGI [7]: 13.5 µM
- GI50 [8]: 16.4 µM
- TGI [8]: 31.9 µM
- GI50 [9]: 22.3 µM
- TGI [9]: 41.4 µM
- GI50 [10]: 18.8 µM
- TGI [10]: 34.3 µM
- GI50 [11]: 15.2 µM
- TGI [11]: 31.8 µM
- GI50 [12]: 14 µM
- TGI [12]: 28.8 µM
- GI50 [13]: 13.6 µM
- TGI [13]: 26.5 µM
- GI50 [14]: 20.2 µM
- TGI [14]: 36.6 µM
- GI50 [15]: 4.13 µM
- TGI [15]: 11.6 µM
- GI50 [16]: 11.3 µM
- TGI [16]: 32.6 µM
- GI50 [17]: 11.7 µM
- TGI [17]: 28.3 µM
- GI50 [18]: 8.46 µM
- TGI [18]: 41.1 µM
- GI50 [19]: 13.8 µM
- TGI [19]: 26.7 µM
- GI50 [20]: 14.6 µM
- TGI [20]: 28.5 µM
- GI50 [21]: 2.63 µM
- TGI [21]: 11.1 µM
- GI50 [22]: 13 µM
- TGI [22]: 25.7 µM
- GI50 [23]: 12.6 µM
- TGI [23]: 25.1 µM
- GI50 [24]: 5.17 µM
- TGI [24]: 16.8 µM
- GI50 [25]: 19 µM
- TGI [25]: 64.4 µM
- GI50 [26]: 17.7 µM
- TGI [26]: 33.9 µM
- GI50 [27]: 11.8 µM
- TGI [27]: 27.6 µM
- GI50 [28]: 21.3 µM
- TGI [28]: 49.9 µM
- GI50 [29]: 2.07 µM
- TGI [29]: 7.04 µM
- GI50 [30]: 13.3 µM
- TGI [30]: 26 µM
- GI50 [31]: 14.5 µM
- TGI [31]: 35.7 µM
- GI50 [32]: 25.7 µM
- TGI [32]: 40.4 µM
- GI50 [33]: 17.8 µM
- TGI [33]: 36.3 µM
- GI50 [34]: 17.5 µM
- TGI [34]: 63.5 µM
- GI50 [35]: 9.7 µM
- TGI [35]: 24.7 µM
- GI50 [36]: 3.02 µM
- TGI [36]: 13.7 µM
- GI50 [37]: 12.8 µM
- TGI [37]: 28.5 µM
- GI50 [38]: 17 µM
- TGI [38]: 31.8 µM
- GI50 [39]: 2.72 µM
- TGI [39]: 9.7 µM
- GI50 [40]: 14.4 µM
- TGI [40]: 27.6 µM
- GI50 [41]: 11.3 µM
- TGI [41]: 23.9 µM
- GI50 [42]: 12.5 µM
- TGI [42]: 25 µM
- GI50 [43]: 17.2 µM
- TGI [43]: 31.1 µM
- GI50 [44]: 15.4 µM
- TGI [44]: 29.8 µM
- GI50 [45]: 18 µM
- TGI [45]: 32.3 µM
- GI50 [46]: 9.69 µM
- TGI [46]: 29.5 µM
- GI50 [47]: 15.5 µM
- TGI [47]: 34.2 µM
- GI50 [48]: 3.67 µM
- TGI [48]: 82.1 µM
- GI50 [49]: 7.62 µM
- TGI [49]: 20.8 µM
- GI50 [50]: 12.8 µM
- TGI [50]: 25.3 µM
- GI50 [51]: 10.1 µM
- TGI [51]: 23.2 µM
- GI50 [52]: 13.7 µM
- TGI [52]: 26.5 µM
- GI50 [53]: 11 µM
- TGI [53]: 22.9 µM
- GI50 [54]: 16.2 µM
- TGI [54]: 29.7 µM
- GI50 [55]: 2.55 µM
- TGI [55]: 6.41 µM

Structure (SMILES): COc1cc(C)c2c(=O)c3c(oc2c1)C(=O)c1c(O)c(OC)cc(O)c1C3=O
- TGI [56]: 5.54 µM
- TGI [2]: 7.84 µM
- TGI [4]: 1.85 µM
- TGI [5]: 5.12 µM
- TGI [57]: > 43.4 µM
- TGI [6]: 10.1 µM
- TGI [7]: 1.72 µM
- TGI [8]: 1.8 µM
- TGI [9]: 3.25 µM
- TGI [10]: 25 µM
- TGI [11]: 3.42 µM
- TGI [12]: 3.79 µM
- TGI [58]: 2.57 µM
- TGI [13]: 3.9 µM
- TGI [14]: 3.98 µM
- TGI [15]: 1.26 µM
- TGI [16]: > 50 µM
- TGI [17]: 4.29 µM
- TGI [18]: 4.39 µM
- TGI [19]: 11.9 µM
- TGI [20]: 19.9 µM
- TGI [59]: 1.24 µM
- TGI [23]: 4.04 µM
- TGI [24]: 3.83 µM
- TGI [60]: 9.34 µM
- TGI [25]: 4.6 µM
- TGI [26]: 0.524 µM
- TGI [27]: 3.38 µM
- TGI [28]: 3.97 µM
- TGI [29]: 9.17 µM
- TGI [61]: 2.62 µM
- TGI [30]: 2.4 µM
- TGI [31]: 4.28 µM
- TGI [32]: 5.36 µM
- TGI [33]: 0.551 µM
- TGI [62]: > 50 µM
- TGI [63]: > 50 µM
- TGI [34]: 4.48 µM
- TGI [35]: 2.71 µM
- TGI [37]: > 50 µM
- TGI [38]: 3.23 µM
- TGI [39]: 4.19 µM
- TGI [40]: 1.88 µM
- TGI [41]: 7.44 µM
- TGI [42]: 2.33 µM
- TGI [43]: 3.98 µM
- TGI [44]: 5.3 µM
- TGI [64]: 2.69 µM
- TGI [45]: 7.89 µM
- TGI [46]: 3.84 µM
- TGI [47]: 7.2 µM
- TGI [49]: 10.7 µM
- TGI [51]: 2.53 µM
- TGI [52]: 3.1 µM
- TGI [53]: 4.61 µM
- TGI [54]: 3.62 µM
- TGI [55]: 2.29 µM
